Measurements from ChEMBL document CHEMBL4334508, “Oleanolic Acid Derivatives as Potential Inhibitors of HIV-1 Protease” (J Nat Prod, 2019).
pIC50: −log10 of the molar value.

target: Protease (Human immunodeficiency virus 1, UniProt Q9YQ12); test: Inhibition of HIV1 protease expressed in Escherichia coli using Abz-Ala-Arg-Val-Nle-Tyr(NO2)-Glu-Ala-Nle-NH2 peptide as substrate by FRET assay
Sequence (Q9YQ12 whole entry): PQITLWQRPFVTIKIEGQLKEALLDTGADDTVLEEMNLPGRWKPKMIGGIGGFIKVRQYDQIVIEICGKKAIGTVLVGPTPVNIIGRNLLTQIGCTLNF

Q: How did the pIC50 turn out when `CC(C)[C@H](NC(=O)CCCCCNC(=O)[C@]12CCC(C)(C)C[C@H]1C1=CC[C@@H]3[C@@]4(C)CC[C@H](OC(=O)c5ccccc5)C(C)(C)[C@@H]4CC[C@@]3(C)[C@]1(C)CC2)C(=O)O` was run?
A: The pIC50 was less than 4.30.

Q: `CCCC(=O)O[C@H]1CC[C@]2(C)[C@H]3CC=C4[C@@H]5CC(C)(C)CC[C@]5(C(=O)NCCCC(=O)N[C@H](C(=O)O)C(C)C)CC[C@@]4(C)[C@]3(C)CC[C@H]2C1(C)C` was tested. Which pIC50 did it give?
A: The pIC50 was less than 4.30.

Q: How did the pIC50 turn out when `C[C@H](NC(=O)CCCCCCCCCCNC(=O)[C@]12CCC(C)(C)C[C@H]1C1=CC[C@@H]3[C@@]4(C)CC[C@H](OC(=O)c5ccccc5C(=O)O)C(C)(C)[C@@H]4CC[C@@]3(C)[C@]1(C)CC2)C(=O)O` was run?
A: Its pIC50 is 6.00.

Q: With `CC(C)[C@H](NC(=O)CCCCCCCCCCNC(=O)[C@]12CCC(C)(C)C[C@H]1C1=CC[C@@H]3[C@@]4(C)CC[C@H](OC(=O)CCC(=O)O)C(C)(C)[C@@H]4CC[C@@]3(C)[C@]1(C)CC2)C(=O)O` as the molecule, how does the pIC50 read?
A: The pIC50 was less than 4.30.

Q: With `C[C@H](NC(=O)CCCCCCCCCCNC(=O)[C@]12CCC(C)(C)C[C@H]1C1=CC[C@@H]3[C@@]4(C)CC[C@H](OC(=O)CC(C)(C)CC(=O)O)C(C)(C)[C@@H]4CC[C@@]3(C)[C@]1(C)CC2)C(=O)O` as the molecule, how does the pIC50 read?
A: Its pIC50 is less than 4.30.

Q: How did the pIC50 turn out when `CC(C)[C@H](NC(=O)CCCNC(=O)[C@]12CCC(C)(C)C[C@H]1C1=CC[C@@H]3[C@@]4(C)CC[C@H](OC(=O)CCC(=O)O)C(C)(C)[C@@H]4CC[C@@]3(C)[C@]1(C)CC2)C(=O)O` was run?
A: Its pIC50 is 4.38.

Q: With `CC(=O)O[C@H]1CC[C@]2(C)[C@H]3CC=C4[C@@H]5CC(C)(C)CC[C@]5(C(=O)NCCCCCC(=O)N[C@H](C(=O)O)C(C)C)CC[C@@]4(C)[C@]3(C)CC[C@H]2C1(C)C` as the molecule, how does the pIC50 read?
A: The pIC50 was 4.52.

Q: `CCCCCCCCCCCC(=O)O[C@H]1CC[C@]2(C)[C@H]3CC=C4[C@@H]5CC(C)(C)CC[C@]5(C(=O)NCCCC(=O)N[C@H](C(=O)O)C(C)C)CC[C@@]4(C)[C@]3(C)CC[C@H]2C1(C)C` was tested. Which pIC50 did it give?
A: The pIC50 was less than 4.30.

Q: `CC(=O)O[C@H]1CC[C@]2(C)[C@H]3CC=C4[C@@H]5CC(C)(C)CC[C@]5(C(=O)NCCCC(=O)N[C@H](C(=O)O)C(C)C)CC[C@@]4(C)[C@]3(C)CC[C@H]2C1(C)C` was tested. Which pIC50 did it give?
A: Its pIC50 is less than 4.30.

Q: How did the pIC50 turn out when `CC(C)[C@H](NC(=O)CCCCCNC(=O)[C@]12CCC(C)(C)C[C@H]1C1=CC[C@@H]3[C@@]4(C)CC[C@H](OC(=O)CCCC(=O)O)C(C)(C)[C@@H]4CC[C@@]3(C)[C@]1(C)CC2)C(=O)O` was run?
A: Its pIC50 is 4.75.

Q: `CC(C)[C@H](NC(=O)CCCCCNC(=O)[C@]12CCC(C)(C)C[C@H]1C1=CC[C@@H]3[C@@]4(C)CC[C@H](OC(=O)c5ccccc5C(=O)O)C(C)(C)[C@@H]4CC[C@@]3(C)[C@]1(C)CC2)C(=O)O` was tested. Which pIC50 did it give?
A: The pIC50 was 6.23.

Q: How did the pIC50 turn out when `CC(C)[C@H](NC(=O)CCCNC(=O)[C@]12CCC(C)(C)C[C@H]1C1=CC[C@@H]3[C@@]4(C)CC[C@H](OC(=O)CCCC(=O)O)C(C)(C)[C@@H]4CC[C@@]3(C)[C@]1(C)CC2)C(=O)O` was run?
A: The pIC50 was 4.70.

Q: With `CC(C)[C@H](NC(=O)CCCCCCCCCCNC(=O)[C@]12CCC(C)(C)C[C@H]1C1=CC[C@@H]3[C@@]4(C)CC[C@H](OC(=O)c5ccccc5)C(C)(C)[C@@H]4CC[C@@]3(C)[C@]1(C)CC2)C(=O)O` as the molecule, how does the pIC50 read?
A: Its pIC50 is less than 4.30.

Q: `CC(C)[C@H](NC(=O)CCCNC(=O)[C@]12CCC(C)(C)C[C@H]1C1=CC[C@@H]3[C@@]4(C)CC[C@H](OC(=O)CC(C)(C)CC(=O)O)C(C)(C)[C@@H]4CC[C@@]3(C)[C@]1(C)CC2)C(=O)O` was tested. Which pIC50 did it give?
A: Its pIC50 is 4.33.

Q: `CCCCCC(=O)O[C@H]1CC[C@]2(C)[C@H]3CC=C4[C@@H]5CC(C)(C)CC[C@]5(C(=O)NCCCC(=O)N[C@H](C(=O)O)C(C)C)CC[C@@]4(C)[C@]3(C)CC[C@H]2C1(C)C` was tested. Which pIC50 did it give?
A: The pIC50 was less than 4.30.

Q: How did the pIC50 turn out when `CCCCCC(=O)O[C@H]1CC[C@]2(C)[C@H]3CC=C4[C@@H]5CC(C)(C)CC[C@]5(C(=O)NCCCCCCCCCCC(=O)N[C@H](C(=O)O)C(C)C)CC[C@@]4(C)[C@]3(C)CC[C@H]2C1(C)C` was run?
A: Its pIC50 is less than 4.30.

Q: `CCC(=O)O[C@H]1CC[C@]2(C)[C@H]3CC=C4[C@@H]5CC(C)(C)CC[C@]5(C(=O)NCCCCCCCCCCC(=O)N[C@H](C(=O)O)C(C)C)CC[C@@]4(C)[C@]3(C)CC[C@H]2C1(C)C` was tested. Which pIC50 did it give?
A: Its pIC50 is less than 4.30.

Q: How did the pIC50 turn out when `CC(C)[C@H](NC(=O)CCCNC(=O)[C@]12CCC(C)(C)C[C@H]1C1=CC[C@@H]3[C@@]4(C)CC[C@H](OC(=O)c5ccccc5)C(C)(C)[C@@H]4CC[C@@]3(C)[C@]1(C)CC2)C(=O)O` was run?
A: The pIC50 was less than 4.30.

Q: How did the pIC50 turn out when `CC(C)[C@H](NC(=O)CCCCCCCCCCNC(=O)[C@]12CCC(C)(C)C[C@H]1C1=CC[C@@H]3[C@@]4(C)CC[C@H](OC(=O)c5ccccc5C(=O)O)C(C)(C)[C@@H]4CC[C@@]3(C)[C@]1(C)CC2)C(=O)O` was run?
A: The pIC50 was 5.92.

Q: How did the pIC50 turn out when `CCCCCCCCCCCC(=O)O[C@H]1CC[C@]2(C)[C@H]3CC=C4[C@@H]5CC(C)(C)CC[C@]5(C(=O)NCCCCCC(=O)N[C@H](C(=O)O)C(C)C)CC[C@@]4(C)[C@]3(C)CC[C@H]2C1(C)C` was run?
A: The pIC50 was less than 4.30.

Q: With `CCCCCC(=O)O[C@H]1CC[C@]2(C)[C@H]3CC=C4[C@@H]5CC(C)(C)CC[C@]5(C(=O)NCCCCCC(=O)N[C@H](C(=O)O)C(C)C)CC[C@@]4(C)[C@]3(C)CC[C@H]2C1(C)C` as the molecule, how does the pIC50 read?
A: The pIC50 was less than 4.30.

Q: `CC(C)[C@H](NC(=O)CCCCCCCCCCNC(=O)[C@]12CCC(C)(C)C[C@H]1C1=CC[C@@H]3[C@@]4(C)CC[C@H](OC(=O)CC(C)(C)CC(=O)O)C(C)(C)[C@@H]4CC[C@@]3(C)[C@]1(C)CC2)C(=O)O` was tested. Which pIC50 did it give?
A: The pIC50 was less than 4.30.

Q: With `CC(C)[C@H](NC(=O)CCCCCNC(=O)[C@]12CCC(C)(C)C[C@H]1C1=CC[C@@H]3[C@@]4(C)CC[C@H](OC(=O)CCC(=O)O)C(C)(C)[C@@H]4CC[C@@]3(C)[C@]1(C)CC2)C(=O)O` as the molecule, how does the pIC50 read?
A: The pIC50 was 5.02.

Q: How did the pIC50 turn out when `CC(=O)O[C@H]1CC[C@]2(C)[C@H]3CC=C4[C@@H]5CC(C)(C)CC[C@]5(C(=O)NCCCCCCCCCCC(=O)N[C@H](C(=O)O)C(C)C)CC[C@@]4(C)[C@]3(C)CC[C@H]2C1(C)C` was run?
A: Its pIC50 is less than 4.30.

Q: `CCCC(=O)O[C@H]1CC[C@]2(C)[C@H]3CC=C4[C@@H]5CC(C)(C)CC[C@]5(C(=O)NCCCCCC(=O)N[C@H](C(=O)O)C(C)C)CC[C@@]4(C)[C@]3(C)CC[C@H]2C1(C)C` was tested. Which pIC50 did it give?
A: Its pIC50 is less than 4.30.

Q: How did the pIC50 turn out when `CC(C)[C@H](NC(=O)CCCCCNC(=O)[C@]12CCC(C)(C)C[C@H]1C1=CC[C@@H]3[C@@]4(C)CC[C@H](OC(=O)CC(C)(C)CC(=O)O)C(C)(C)[C@@H]4CC[C@@]3(C)[C@]1(C)CC2)C(=O)O` was run?
A: Its pIC50 is 4.63.

Q: How did the pIC50 turn out when `CC(C)[C@H](NC(=O)CCCCCCCCCCNC(=O)[C@]12CCC(C)(C)C[C@H]1C1=CC[C@@H]3[C@@]4(C)CC[C@H](OC(=O)CCCC(=O)O)C(C)(C)[C@@H]4CC[C@@]3(C)[C@]1(C)CC2)C(=O)O` was run?
A: Its pIC50 is less than 4.30.

Q: How did the pIC50 turn out when `CCC(=O)O[C@H]1CC[C@]2(C)[C@H]3CC=C4[C@@H]5CC(C)(C)CC[C@]5(C(=O)NCCCCCC(=O)N[C@H](C(=O)O)C(C)C)CC[C@@]4(C)[C@]3(C)CC[C@H]2C1(C)C` was run?
A: Its pIC50 is less than 4.30.

Q: With `C[C@H](NC(=O)CCCCCCCCCCNC(=O)[C@]12CCC(C)(C)C[C@H]1C1=CC[C@@H]3[C@@]4(C)CC[C@H](OC(=O)CCC(=O)O)C(C)(C)[C@@H]4CC[C@@]3(C)[C@]1(C)CC2)C(=O)O` as the molecule, how does the pIC50 read?
A: The pIC50 was less than 4.30.

Q: With `CCC(=O)O[C@H]1CC[C@]2(C)[C@H]3CC=C4[C@@H]5CC(C)(C)CC[C@]5(C(=O)NCCCC(=O)N[C@H](C(=O)O)C(C)C)CC[C@@]4(C)[C@]3(C)CC[C@H]2C1(C)C` as the molecule, how does the pIC50 read?
A: Its pIC50 is less than 4.30.

Q: With `CCCC(=O)O[C@H]1CC[C@]2(C)[C@H]3CC=C4[C@@H]5CC(C)(C)CC[C@]5(C(=O)NCCCCCCCCCCC(=O)N[C@H](C(=O)O)C(C)C)CC[C@@]4(C)[C@]3(C)CC[C@H]2C1(C)C` as the molecule, how does the pIC50 read?
A: Its pIC50 is less than 4.30.

Q: How did the pIC50 turn out when `C[C@H](NC(=O)CCCCCCCCCCNC(=O)[C@]12CCC(C)(C)C[C@H]1C1=CC[C@@H]3[C@@]4(C)CC[C@H](OC(=O)CCCC(=O)O)C(C)(C)[C@@H]4CC[C@@]3(C)[C@]1(C)CC2)C(=O)O` was run?
A: Its pIC50 is less than 4.30.

Q: How did the pIC50 turn out when `CCCCCCCCCCCC(=O)O[C@H]1CC[C@]2(C)[C@H]3CC=C4[C@@H]5CC(C)(C)CC[C@]5(C(=O)NCCCCCCCCCCC(=O)N[C@H](C(=O)O)C(C)C)CC[C@@]4(C)[C@]3(C)CC[C@H]2C1(C)C` was run?
A: Its pIC50 is less than 4.30.

Q: `CC(=O)N[C@H](C(=O)N[C@H](C(=O)N[C@@H](CC(C)C)[C@@H](O)CC(=O)N[C@@H](C)C(=O)N[C@@H](CC(C)C)[C@@H](O)CC(=O)O)C(C)C)C(C)C` [ACETYLPEPSTATIN] was tested. Which pIC50 did it give?
A: Its pIC50 is 6.62.
